Laboratory results: patent US8399609B2, “Treating or preventing extracellular matrix build-up” (RegeneRx Biopharmaceuticals, Inc., priority 2004, dated 2013)

Test system: Human Blood Platelets
Assay: Platelet aggregation assay (Payton duo-channel aggregometer), PAF-16-induced aggregation in platelet-rich plasma
Assay type: cell-based
Conditions: agonist PAF-16 20 ng/ml
Protocol: Platelet Aggregation Assay
The inhibitory effects of Tβ4 on platelet aggregation were tested using a Payton duo-channel aggregometer. This aggregometer produces a plot of % light transmission (directly proportional to % aggregation) vs. time.
For each experiment, one 9 ml blood sample was drawn from a fasting, non-smoking, healthy subject into a propylene tube containing 1 ml of 3.8% sodium-citrate (anti-coagulant). This blood sample was then diluted with 2 ml of phosphate buffer (phosphate-buffer saline with 11 mM glucose and 3 mM sodium citrate). Dilution with phosphate buffer aids in stabilization of the platelet environment and retention of platelet activity for a longer period of time. Platelet-rich plasma (PRP) was prepared by centrifuging the blood for 3 min at 2300 RPM. After removal of PRP, the volume of the remaining blood was brought up to 10 ml by adding phosphate buffer, and the sample was once again centrifuged for the preparation of platelet-poor (PPP). To obtain PPP, we centrifuged the blood for 10 min at 2800 RPM.
Platelet aggregation tests were performed by recording % light transmission (vs. time) through samples of PRP. Before each assay, the aggregometer was adjusted such that PRP gave no light transmission. For aggregation assays, duplicate samples (0.4 ml) of PRP were incubated with 1 mM CaCl2 (to restore the physiologic concentration of Ca^++) for 1 min at 37° C. Different amounts of Tβ4, ranging for 20 to 300 ng, dissolved in 30 μl of distilled/deionized water, were added to each assay. The mixture was then incubated and stirred for an additional 2 min before aggregation was induced with an agonist.
Among the agonists used in the experiments were ADP, epinephrine, arachidonic acid, thrombin, collagen (Sigma Chemicals), and PAF (Platelet-activating factor)-16 (from Calbiochem). Concentrations of these reagents were 1 μm, 10 μm, 100 μg/ml, 0.2 NIH units, 0.05 mg/ml, and 20 ng/ml respectively. Two control assays were run at the beginning and end of each experiment. An assay without Tβ4 (but with an equivalent volume of H2O) constitutes a control, and the % light transmission produced by each control is assigned a value of % 100 for each experiment. For the measurement of % inhibition caused by Tβ4, light transmission in a Tβ4 assay was compared to the average light transmission in the start and end controls, using the following formula: […]

thymosin beta 4 (SDKPDMAEIEKFDKSKLKKTETQEKNPLPSKETIEQEKQAGES; Thymosin beta-4; UniProt P62328 2-44, looked up) [Tβ4]
Average % Inhibition of Aggregation (20 ng Tβ4 per assay (0.4 ml PRP)): 50%
Average % Inhibition of Aggregation (40 ng Tβ4 per assay (0.4 ml PRP)): 90%
Average % Inhibition of Aggregation (60 ng Tβ4 per assay (0.4 ml PRP)): 100%
Average % Inhibition of Aggregation (80 ng Tβ4 per assay (0.4 ml PRP)): 95%
Average % Inhibition of Aggregation (100 ng Tβ4 per assay (0.4 ml PRP)): 92%
Average % Inhibition of Aggregation (300 ng Tβ4 per assay (0.4 ml PRP)): 84%
